# Test results: patent US20210300909A1, “IMMUNOMODULATORS, COMPOSITIONS AND METHODS THEREOF” (BETTA PHARMACEUTICALS CO., LTD, priority 2018, published 2021)
# Biological target: T1, PD-1/PD-L1 protein/protein interaction (Homo sapiens, UniProt Q9NZQ7)
# T1 construct: Recombinant human PD-L1 protein (19-238) with a His-tag at the C-terminus; purchased AcroBiosystems PD1-H5229 (PD-L1); PD1-H5257 (PD-1)
# Test: PD-1/PD-L1 homogenous time-resolved fluorescence (HTRF) binding assay
# Settings: not given
# Experimental: Resolved Fluorescence (HTRF) Binding Assay
# The assays were conducted in a standard black 384-well polystyrene plate with a final volume of 20 μL. Inhibitors were first serially diluted in DMSO and then added to the plate wells before the addition of other reaction components. The final concentration of DMSO in the assay was 1%. The assays were carried out at 25° C. in the PBS buffer (pH 7.4) with 0.05% Tween-20 and 0.1% BSA. […] Plates were centrifuged and proteins were preincubated with inhibitors for 40 min. The incubation was followed by the addition of 10 μL of HTRF detection buffer supplemented with Europium cryptate-labeled anti-human IgG (PerkinElmer-AD0212) specific for Fc and anti-His antibody conjugated to SureLight®-Allophycocyanin (APC, PerkinElmer-AD0059H). After centrifugation, the plate was incubated at 25° C. for 60 min. […] Final concentrations in the assay were […], 10 nM PD-L1, nM europium anti-human IgG and 20 nM anti-His-Allophycocyanin. IC50 determination was performed by fitting the curve of percent control activity versus the log of the inhibitor concentration using the GraphPad Prism 5.0 software.
# T1 sequence (Q9NZQ7 19-238): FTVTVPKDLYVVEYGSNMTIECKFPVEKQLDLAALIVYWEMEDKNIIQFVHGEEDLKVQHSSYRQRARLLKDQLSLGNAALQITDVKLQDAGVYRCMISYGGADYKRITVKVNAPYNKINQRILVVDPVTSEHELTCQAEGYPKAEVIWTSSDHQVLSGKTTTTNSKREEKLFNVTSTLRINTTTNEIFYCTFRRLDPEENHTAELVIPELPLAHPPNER
row,SMILES,IC50 [nM]
1,"COc1cc2oc(-c3cccc(-c4cccc(OCCCN5CCOCC5)c4)c3C)nc2cc1CN1CCC(F)(F)CC1C(=O)O (centres unmarked) [Compound 16, 4,4-difluoro-1-((6-methoxy-2-(2-methyl-3′-(3-morpholinopropoxy)-[1,1′-biphenyl]-3-yl)benzo[d]oxazol-5-yl)methyl)piperidine-2-carboxylic acid]",25 to 150
2,"COc1cc2oc(-c3cccc(-c4cccc(OCCCN(C)C)c4C)c3C)nc2cc1CN1CCCCC1C(=O)O (centres unmarked) [Compound 30, 1-((2-(3′-(3-(dimethylamino)propoxy)-2,2′-dimethyl-[1,1′-biphenyl]-3-yl)-6-methoxybenzo[d]oxazol-5-yl)methyl)piperidine-2-carboxylic acid]",< 25
3,"COc1cc2oc(-c3cccc(-c4cccc(CC5OC5CN5CCOCC5)c4C)c3C)nc2cc1CN1CCCCC1C(=O)O (centres unmarked) [Compound 27, 1-((2-(2,2′-dimethyl-3′-((3-(morpholinomethyl)oxiran-2-yl)methyl)-[1,1′-biphenyl]-3-yl)-6-methoxybenzo[d]oxazol-5-yl)methyl)piperidine-2-carboxylic acid]",25 to 150
4,"COc1cc2nc(-c3cccc(-c4cccc(OCCCN5CCOCC5)c4)c3C)oc2cc1CN1CCCCC1C(=O)O (centres unmarked) [Compound 34, 1-((5-methoxy-2-(2-methyl-3′-(3-morpholinopropoxy)-[1,1′-biphenyl]-3-yl)benzo[d]oxazol-6-yl)methyl)piperidine-2-carboxylic acid]",< 25

# Next, values leading:
row,IC50 [nM],SMILES
1,< 25,"COc1cc2oc(-c3cccc(-c4cccc(NC(=O)CCN5CCOCC5)c4)c3C)nc2cc1CN1CCOCC1C(=O)O (centres unmarked) [Compound 17, 4-((6-methoxy-2-(2-methyl-3′-(3-morpholinopropanamido)-[1,1′-biphenyl]-3-yl)benzo[d]oxazol-5-yl)methyl)morpholine-3-carboxylic acid]"
2,< 25,"COc1cc2nc(-c3cccc(-c4cccc(OCCCN5CCOCC5)c4)c3C)n(C)c2cc1CN1CCCCC1C(=O)O (centres unmarked) [Compound 33, 1-((5-methoxy-1-methyl-2-(2-methyl-3′-(3-morpholinopropoxy)-[1,1′-biphenyl]-3-yl)-1H-benzo[d]imidazol-6-yl)methyl)piperidine-2-carboxylic acid]"
3,< 25,"COCCN(C)CCCOc1cccc(-c2cccc(-c3nc4cc(CN5CCCCC5C(=O)O)c(OC)cc4o3)c2C)c1C (centres unmarked) [Compound 31, 1-((6-methoxy-2-(3′-(3-((2-methoxyethyl)(methyl)amino)propoxy)-2,2′-dimethyl-[1,1′-biphenyl]-3-yl)benzo[d]oxazol-5-yl)methyl)piperidine-2-carboxylic acid]"
4,< 25,"COc1cc2c(cc1CN1CCCCC1C(=O)O)nc(-c1cccc(-c3cccc(OCCCN4CCOCC4)c3F)c1C)n2C (centres unmarked) [Compound 13, 1-((2-(2′-fluoro-2-methyl-3′-(3-morpholinopropoxy)-[1,1′-biphenyl]-3-yl)-6-methoxy-1-methyl-1H-benzo[d]imidazol-5-yl)methyl)piperidine-2-carboxylic acid]"
5,< 25,"COc1cc2nc(-c3cccc(-c4cccc(OCCCN5CCOCC5)c4F)c3C)n(C)c2cc1N1CCCCC1C(=O)O (centres unmarked) [Compound 12, 1-(2-(2′-fluoro-2-methyl-3′-(3-morpholinopropoxy)-[1,1′-biphenyl]-3-yl)-5-methoxy-1-methyl-1H-benzo[d]imidazol-6-yl)piperidine-2-carboxylic acid]"
6,< 25,"Cc1c(OCCCN2CCOCC2)cccc1-c1cccc(-c2nc3cc(CN(C)CC(=O)O)c(N(C)C)cc3o2)c1C [Compound 37, N-((2-(2,2′-dimethyl-3′-(3-morpholinopropoxy)-[1,1′-biphenyl]-3-yl)-6-(dimethylamino)benzo[d]oxazol-5-yl)methyl)-N-methylglycine]"
7,< 25,"COc1cc2nc(-c3cccc(-c4cccc(OCCCN5CCOCC5)c4)c3C)sc2cc1CN1CCCCC1C(=O)O (centres unmarked) [Compound 35, 1-((5-methoxy-2-(2-methyl-3′-(3-morpholinopropoxy)-[1,1′-biphenyl]-3-yl)benzo[d]thiazol-6-yl)methyl)piperidine-2-carboxylic acid]"

# Same assay, conditions: HTRF, recombinant human PD-1 (Fc tag) / PD-L1 (His-tag), 25° C., PBS pH 7.4; class symbols; read-out: IC50
row,IC50 [nM],SMILES
1,< 25,"CCOc1cc2oc(-c3cccc(-c4cccc5c4CCN5C(=O)CCN4CCOCC4)c3C)nc2cc1CN1CCCCC1C(=O)O (centres unmarked) [Compound 39, 1-((6-ethoxy-2-(2-methyl-3-(1-(3-morpholinopropanoyl)indolin-4-yl)phenyl)benzo[d]oxazol-5-yl)methyl)piperidine-2-carboxylic acid]"
2,25 to 150,"COc1cc2oc(-c3cccc(-c4cccc(OCCCN5CCOCC5)c4)c3C)nc2cc1CN(C)CC(=O)O [Compound 19, N-((6-methoxy-2-(2-methyl-3′-(3-morpholinopropoxy)-[1,1′-biphenyl]-3-yl)benzo[d]oxazol-5-yl)methyl)-N-methylglycine]"
3,> 150,"COc1cc2oc(-c3cccc(-c4cccc5c4CCN5C(=O)CN4CCOCC4)c3C)nc2cc1CN1CCCCC1C(=O)O (centres unmarked) [Compound 40, 1-((6-methoxy-2-(2-methyl-3-(1-(2-morpholinoacetyl)indolin-4-yl)phenyl)benzo[d]oxazol-5-yl)methyl)piperidine-2-carboxylic acid]"
